From patent publication US20050090433A1 (priority 2002, published 2005)
pKd: −log10 of the molar value. “And” between values parts separate entries of the source, which are not always exact repeats. Equal entries are not always repeated.

Key:
Lys-D-Ala-D-Lactate = experiment: ITC of binding to Lys-D-Ala-D-Lactate; details: absence of serum proteins
Text: (§1) Trans. R. Soc. Lond. Ser. A-Math. Phys. Eng. […] Wiley, (1998) p 103-111; and Cooper, A., Curr. Opin. Chem. Biol. (1999) 3, 557-563.

D-Ala-D-Ala = experiment: ITC of binding to dipeptide; details: absence of serum proteins
Text: as §1

[1] = test system: N,N′-diacetyl-Lys-D-Ala-D-Ala; experiment: ITC of binding to tri-peptide, with and without HSA
Protocol: Antibiotics and peptides were dissolved in aqueous buffer (20 mM Na phosphate, 150 mM NaCl, pH 7.4) containing HSA, with gentle stirring immediately before each experiment. Peptide concentrations were determined by weight. […] HSA concentrations were determined by UV absorbance (HSA, ε280=37,700; A280^1%=5.44). Spectra were recorded at room temperature in 1 cm pathlength quartz cuvettes using Shimadzu UV-160A or UV-1601 spectrophotometers, with samples diluted quantitatively with buffer if necessary to give absorbance in the 0.1-1 A range.
Isothermal titration calorimetry was performed using a Microcal VP-ITC instrument at 25° C. and 37° C. using standard operating procedures. […] Samples were degassed gently prior to loading to prevent bubble formation in the calorimeter cell.

Human albumin = Human albumin (Homo sapiens, UniProt P02768); experiment: Protein binding by isothermal titration microcalorimetry; details: for Calculated percent Binding, Human albumin: albumin 6×10^−4 M assumed
Sequence of Human albumin (P02768 25-609): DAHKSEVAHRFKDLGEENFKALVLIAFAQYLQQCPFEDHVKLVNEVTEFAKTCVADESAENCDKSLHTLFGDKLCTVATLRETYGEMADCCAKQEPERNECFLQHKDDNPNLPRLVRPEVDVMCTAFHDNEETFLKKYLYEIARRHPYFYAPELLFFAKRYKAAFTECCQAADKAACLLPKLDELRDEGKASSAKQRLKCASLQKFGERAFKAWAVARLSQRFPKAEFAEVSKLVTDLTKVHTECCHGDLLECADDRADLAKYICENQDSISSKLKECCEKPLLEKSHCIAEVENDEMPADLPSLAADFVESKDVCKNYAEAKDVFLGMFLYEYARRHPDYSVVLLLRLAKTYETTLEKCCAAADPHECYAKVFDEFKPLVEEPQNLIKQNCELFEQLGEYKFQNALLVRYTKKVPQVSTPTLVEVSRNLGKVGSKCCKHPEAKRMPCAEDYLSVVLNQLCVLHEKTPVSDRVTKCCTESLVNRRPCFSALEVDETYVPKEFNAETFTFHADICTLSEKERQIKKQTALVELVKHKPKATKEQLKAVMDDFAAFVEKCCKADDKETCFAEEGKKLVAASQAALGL
Protocol: (§2) Integrated heat effects, after correction for heats of dilution, were analyzed by non-linear regression using a simple single-site binding model with the standard Microcal ORIGIN software package. Raw data (μcal/sec) for each injection were integrated to give the total heat effect per addition, then divided by amount of injectant to give kcal/mole of injectant. The same integration was applied for control dilution effects, and this was subtracted from the actual titration data. This provided a differential of the binding curve in which the extent of binding is proportional to the total heat liberated (or absorbed). This was then analyzed by non-linear regression methods in terms of various standard binding models.

human α-glycoprotein = experiment: as above; details: protein […]10^−5 M assumed
Protocol: as §2

[2] = Multimer to monomer population by electrospray ion mass spectroscopy; assay type: physicochemical; details: dalbavancin 0.1 mg/ml in 8:2 water:isopropanol; teicoplanin 50 and 100 μg/mL in water
Protocol: Experiments were performed using an Applied Biosystem API III+mass spectrometer equipped with a TurboIonSpray source, a Triple Quadrupole analyzer, operating in positive ion mode.
The mass spectra were obtained in electrospray positive mode on a Finnigan LCQ^Deca ion trap instrument previously tuned and calibrated in electrospray mode using Ultramark 1621, caffeine and MRFA (L-metionyl-arginyl-phenilalanyl-arginine).
The mass spectra were obtained in electrospray positive mode on a Finnigan LCQ^Deca ion trap instrument previous tuned and calibrated in electrospray mode using Ultramark 1621, caffeine and MRFA (L-metionyl-arginyl-phenilalanyl-arginine).

[3] = target: N,N′-diacetyl-Lys-D-Ala-D-Ala; experiment: ITC, 25 C, 0 uM HSA
[4] = target: N,N′-diacetyl-Lys-D-Ala-D-Ala; experiment: ITC, 25 C, with 513 uM HSA
[5] = target: N,N′-diacetyl-Lys-D-Ala-D-Ala; experiment: ITC, 10 C, 0 uM HSA

For `CN[C@H](CC(C)C)C(=O)N[C@H]1C(=O)N[C@@H](CC(N)=O)C(=O)N[C@H]2C(=O)N[C@H]3C(=O)N[C@H](C(=O)N[C@H](C(=O)O)c4cc(O)cc(O)c4-c4cc3ccc4O)[C@H](O)c3ccc(c(Cl)c3)Oc3cc2cc(c3O[C@@H]2O[C@H](CO)[C@@H](O)[C@H](O)[C@H]2O[C@H]2C[C@](C)(N)[C@H](O)[C@H](C)O2)Oc2ccc(cc2Cl)[C@H]1O` [Vancomycin], the “Binding to Lys-D-Ala-D-Lactate” value (Lys-D-Ala-D-Lactate) was “no evidence of binding”, the “Binding to dipeptide (D-Ala-D-Ala)” value (D-Ala-D-Ala) was “no evidence of binding” and the Kass ([1]; 10 °C, [HSA] 0 μM) was 6.90E+05 L M^−1. For the same molecule, the Kass ([1]; 25 °C, [HSA] 0 μM) was 3.40E+05 L M^−1 and 3.60E+05 L M^−1, the Kass ([1]; 25 °C, [HSA] 513 μM) was 2.90E+05 L M^−1 and the “Binding to tri-peptide in the presence of HSA vs absence” value ([1]; control ITC experiments) was “comparable to those seen in the absence of HSA”.
For Teicoplanin, the “Apparent binding affinity Ka, Human albumin” value (Human albumin; 25° C., pH 7.4, ± SD of fit) was 0.96 (±0.08) ×10^5 M^−1, the “Calculated percent Binding, Human albumin” value (Human albumin; antibiotic 1 μM) was 98.3% and the “Calculated percent Binding, Human albumin” value (Human albumin; antibiotic 10 μM) was 98.3%. For the same molecule, the “Calculated percent Binding, Human albumin” value (Human albumin; antibiotic 100 μM) was 98.0%, the “Calculated percent Binding, Human α-glycoprotein” value (human α-glycoprotein; antibiotic 1 μM) was 9.6% and the “Calculated percent Binding, Human α-glycoprotein” value (human α-glycoprotein; antibiotic 10 μM) was 9.1%. For the same molecule, the “Calculated percent Binding, Human α-glycoprotein” value (human α-glycoprotein; antibiotic 100 μM) was 6.0% and the “Multimers in solution (ESI-MS)” value [2] was “does not show multimeric complexes in solution”.
In the case of vancomycin hydrochloride (peptide), the pKd [3] was 5.53 and 5.56, the ΔH [3] was -10.7 kcal/mol and -12.9 kcal/mol and the ΔS [3] was -10.6 eu and -17.8 eu. The pKd [4] was 5.46, the ΔH [4] was -10.1 kcal/mol and the ΔS [4] was -8.8 eu. The pKd [5] was 5.84, the ΔH [5] was -9.49 kcal/mol and the ΔS [5] was -6.8 eu.
